# Test results as given in patent US9883691B2, “Food and beverage products containing 1,3-propanediol and methods of modifying flavor release using 1,3-propanediol” (Kraft Foods Group Brands LLC, priority 2012, dated 2018).
# “Also recorded” adds a separate entry of the source.
# Tests used:
# Type in all cases: physicochemical
# [1] = PTR-MS headspace release with various non-aqueous liquids (diols) at 0.05:100 (Example 3); conditions: ratio 0.05:100; for PTR-MS headspace release in 1,3-butanediol: non-aqueous liquid 1,3-butanediol; for PTR-MS headspace release in 1,3-butanediol / PTR-MS headspace release in 1,3-propanediol / PTR-MS headspace release in 1,4-butanediol / PTR-MS headspace release in 1,7-heptanediol / PTR-MS headspace release in Propylene glycol: diluted in water; for PTR-MS headspace release in 1,3-propanediol: non-aqueous liquid 1,3-propanediol; for PTR-MS headspace release in 1,4-butanediol: non-aqueous liquid 1,4-butanediol; for PTR-MS headspace release in 1,7-heptanediol: non-aqueous liquid 1,7-heptanediol; for PTR-MS headspace release in Propylene glycol: non-aqueous liquid propylene glycol
# Protocol: […]. The flavoring was then diluted in water for analysis. The final concentration of each compound was held constant at 8 ppm except furfuryl mercaptan was included at 1.6 ppm to maintain a constant flavor level in the resulting beverage while the non-aqueous liquid varied but the ratio of each compound to non-aqueous liquid was held constant at 0.05:100. A variety of non-aqueous liquids were evaluated, including 1,4-butandiol; 1,7-heptandiol; 1,3-butandiol, propylene glycol, and 1,3-propanediol.
# Samples were analyzed by PTR-MS as described in Example 1.
# Percent suppression was calculated by the following formula: (I1-3-diol−Ialternate diol)/Ialternate diol×100.
# [2] = PTR-MS headspace release in neat solvent, solvent/solvent experiment (Example 5); design: key to Release Differences: “Z” indicates that 1,3-propanediol had higher equilibrium maximum (meaning more of the flavor was released in 1,3-propanediol); “P” indicates that propylene glycol had higher equilibrium maximum; “-” indicates no statistical difference (95% significance) between the two samples; conditions: 1.5 hrs equilibration; for Release Differences: 1,3-propanediol versus propylene glycol as sole solvent, 95% significance
# Protocol: […]. Then the head space was analyzed as described above.
# 0.86 grams of the concentrate was added to 100 grams of either propylene glycol or 1,3-propanediol to provide a 1,3-propanediol diluted concentrate or propylene glycol diluted concentrate. The diluted concentrates were then further diluted as outlined in Table 10 below.
# A 15 gram sample was weighed into a 4 oz vessel and analyzed at 1.5 hrs. of equilibration time as described in the method of Example 4.
# [3] = PTR-MS headspace release at various flavor compound to 1,3-propanediol or PG ratios (Example 2); conditions: for release suppressed in the presence of 1,3-propanediol: 10% cut-off for significant difference, relative to PG; for Percent Suppression by 1,3-propanediol: (IZ−IPG)/IPG×100
# Protocol: The compounds listed below in Table 3 were added together to provide a liquid flavoring to analyze the role, if any, of the amount of 1,3-propanediol on flavor release. […] The amount of each flavor compound in the beverage was held constant at 8 ppm except furfuryl mercaptan was included at 1.6 ppm while the amount of propylene glycol or 1,3-propanediol varied.
# The percent suppression was calculated using the following formula: (IZ−IPG)/IPG×100, where I is peak height, “Z” is 1,3-propanediol and “PG” is propylene glycol.
# [4] = PTR-MS headspace release from stored beverages, water/solvent experiment (Example 4); conditions: beverage stored refrigerated; 1.5, 24, 48 and 72 hours; Tukey-Kramer
# Protocol: 0.86 grams of the flavor concentrate was then added to 100 grams of either propylene glycol or 1,3-propanediol to provide diluted concentrates. […].
# The beverages were then stored in sealed containers in a refrigerator. The container was opened five times over the course of the experiment and therefore represented a beverage in a sealed container being opened for multiple uses. 15 gram samples were weighed into a 4 ounce cup and analyzed at 1.5 hours, 24 hours, 48 hours, and 72 hours after storage.
# The samples were analyzed in triplicate by PTR-MS as described below to determine impact of 1,3-propanediol or propylene glycol on release of the flavors from the beverage. The PTR-MS was performed as follows. A sampling apparatus was needed in conjunction with the PTR-MS inlet to prevent variations caused by headspace kinetics. The sampling apparatus used includes a 4 ounce sample vessel equipped with a 2-hole lid which may be sealed by an adhesive film to allow equilibration. […]. The holes were equal sized (˜2 mm diameter) and match the outer diameter of the PTR-MS inlet line. The flow of the dilution gas into the vessel was regulated by the vacuum and proportional valve of the PTR-MS inlet system. […] The 2 holes in the lid were equidistant from the edge of the vessel (˜20 mm) and ˜30 mm from each other. The PTR-MS inlet was braced by clamps in a fixed position vertically above the laboratory bench (˜55 mm) and a silicone rubber depth gauge was affixed to the PTR-MS inlet tubing and set at 18 mm. The PTR-MS inlet was consistently oriented in a vertical position […] below the inside lid of the vessel and 19 mm above the sample in the vessel. The sample vessel was then held in place during sampling according to the depth gauge on the inlet line and the vessel was subsequently supported on the bench by a 10 mm plastic spacer.
# 15 grams of the sample to be tested (e.g., food or beverage product containing 1,3-propanediol) are added to the vessel and the vessel is sealed and allowed to equilibrate at room temperature (˜22° C.) for 90 minutes. At the time of sampling, the seal was removed from both the sampling hole and the dilution gas hole in the lid and the vessel was immediately affixed to the PTR-MS inlet via the sampling hole. The real-time released flavor was measured from the headspace of the sample vessel for two minutes (according to the conditions listed in Table 1 above).
# The data was analyzed using PTR-MS Viewer, Version 3.0.0.101 (Ionicon Analytik G.m.b.H). The point of maximum intensity for each compound of interest was determined and recorded according to the PTR-MS Viewer software. The maximum intensity in counts over the timescale for each compound of interest was used for data analysis as it reflected the static equilibrium headspace concentration in the system at the moment of seal removal. Due to the necessity of a dilution gas, the volatile concentration decreased over time as the compounds of interest re-equilibrated to a state of dynamic equilibrium in the headspace.
# The statistical differences were determined by Tukey-Kramer Honest […]. […].
# [5] = flavor/1,3-propanediol ratio of 0.05:100
# [6] = ratio 0.005:100, negative = suppressed vs PG
"PTR-MS headspace release in 1,3-butanediol [1]","PTR-MS headspace release in 1,3-propanediol [1]","PTR-MS headspace release in 1,4-butanediol [1]","PTR-MS headspace release in 1,7-heptanediol [1]",PTR-MS headspace release in Propylene glycol [1],"Percent suppression by 1,3-butanediol relative to 1,4-butanediol [1] [%]",Release Differences [2],"release suppressed in the presence of 1,3-propanediol [3]","effect of 1,3-propanediol on release [3, 5]","Percent Suppression by 1,3-propanediol [3, 6] [%]","Percent Suppression by 1,3-propanediol ([3]; ratio 0.05:100) [%]","Percent Suppression by 1,3-propanediol ([3]; ratio 5:100) [%]","Percent Suppression by 1,3-propanediol ([3]; ratio 15:100) [%]","effect of 1,3-propanediol on flavor release relative to propylene glycol, water/solvent [4]","release in 1,3-propanediol versus propylene glycol, solvent/solvent [2]","effect of 1,3-propanediol on release ([3]; flavor to 1,3-propanediol ratio of about 0.005:100 to 15:100)","effect of 1,3-propanediol on release ([3]; ratio 0.005:100)",Compound
16.9,9.90,15.6,13.4,13.70,8.0,P,suppressed,significant suppression effect,−0.5,−27.7,−1.7,−9.0,little effect,,,,CC(=O)O [Acetic acid]
28.4,18.95,39.9,36.2,36.50,−40.3,,suppressed,significant suppression effect,−3.4,−48.1,−19.9,0.2,significantly suppressed release,,,,COc1ccccc1O [Guaiacol]
42.9,10.70,56.0,67.0,11.95,−30.5,,,,2.6,−10.5,−21.1,−2.5,significantly suppressed release,,,,CCCCCCCC=O [Octanal]
117.0,23.9,258.0,131.3,16.84,−120.5,,,,−2.0,41.9,17.8,−12.4,little effect,,,,CCCCCCCCCC(=O)OCC [Ethyl decanoate]
6.0,5.83,13.5,24.3,18.80,−124.2,,suppressed,,−70.0,−69.0,−45.4,−58.2,significantly suppressed release,,significant suppression effect,still suppressed,"CC(C)=CCCC(C)=CC=O [Citral, 3,7-dimethyl-2,6-octadienal]"
12.3,9.89,20.5,22.0,17.85,−67.3,Z,suppressed,significant suppression effect,10.2,−44.6,−17.8,−5.6,little effect,,,,Cc1nc(C)c(C)nc1C [Tetramethyl pyrazine]

Compound,"PTR-MS headspace release in 1,3-butanediol [1]","PTR-MS headspace release in 1,3-propanediol [1]","PTR-MS headspace release in 1,4-butanediol [1]","PTR-MS headspace release in 1,7-heptanediol [1]",PTR-MS headspace release in Propylene glycol [1],"Percent suppression by 1,3-butanediol relative to 1,4-butanediol [1] [%]",Release Differences [2],"release suppressed in the presence of 1,3-propanediol [3]","effect of 1,3-propanediol on release [3, 5]","Percent Suppression by 1,3-propanediol [3, 6] [%]","Percent Suppression by 1,3-propanediol ([3]; ratio 0.05:100) [%]","Percent Suppression by 1,3-propanediol ([3]; ratio 5:100) [%]","Percent Suppression by 1,3-propanediol ([3]; ratio 15:100) [%]","effect of 1,3-propanediol on flavor release relative to propylene glycol, water/solvent [4]","release in 1,3-propanediol versus propylene glycol, solvent/solvent [2]","effect of 1,3-propanediol on release ([3]; flavor to 1,3-propanediol ratio of about 0.005:100 to 15:100)","effect of 1,3-propanediol on release ([3]; ratio 0.005:100)"
CCCCCCCCO [Octanol],4.0,1.05,5.1,6.2,1.19,−27.5,P,,,8.5,−11.4,−19.1,−0.6,significantly suppressed release; also recorded: released faster in propylene glycol,no significant difference,,
SCc1ccco1 [Furfuryl mercaptan],1.3,0.55,0.3,2.1,0.51,73.9,,,,31.8,7.8,15.9,−13.1,significantly increase the rate of release,,,
C=C(C)[C@H]1CC=C(C)CC1 [Limonene],13.5,4.9,59.7,59.5,6.55,−343.5,Z,suppressed,,−0.1,−25.2,−34.8,23.5,little effect; also recorded: no significant difference,"released faster in 1,3-propanediol",,
